Like-named read-outs stand apart in the source and are kept apart here.
Tests used:
Experiment in all cases: biochemical
Set-up in all cases: Reaction Biology 371-kinase panel at Km ATP, per cent enzyme activity relative to DMSO, single dose in duplicate
Conditions in all cases: duplicate measurements, Km ATP
IKKb/IKBKB = IKKb/IKBKB (Homo sapiens, UniProt O14920)
Procedure, shortened: (§1)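 Compound screened at 300 nM in vitro across a 371-kinase panel. Enzyme activity expressed as % of DMSO controls. IC50 values came from sigmoidal variable-slope dose-response fits with the bottom fixed at 0.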

GRK7 = GRK7 (Homo sapiens, UniProt Q8WTQ7)
Procedure, shortened: as §1

TEC = TEC (Homo sapiens, UniProt P42680)
Sequence of TEC (P42680 whole entry): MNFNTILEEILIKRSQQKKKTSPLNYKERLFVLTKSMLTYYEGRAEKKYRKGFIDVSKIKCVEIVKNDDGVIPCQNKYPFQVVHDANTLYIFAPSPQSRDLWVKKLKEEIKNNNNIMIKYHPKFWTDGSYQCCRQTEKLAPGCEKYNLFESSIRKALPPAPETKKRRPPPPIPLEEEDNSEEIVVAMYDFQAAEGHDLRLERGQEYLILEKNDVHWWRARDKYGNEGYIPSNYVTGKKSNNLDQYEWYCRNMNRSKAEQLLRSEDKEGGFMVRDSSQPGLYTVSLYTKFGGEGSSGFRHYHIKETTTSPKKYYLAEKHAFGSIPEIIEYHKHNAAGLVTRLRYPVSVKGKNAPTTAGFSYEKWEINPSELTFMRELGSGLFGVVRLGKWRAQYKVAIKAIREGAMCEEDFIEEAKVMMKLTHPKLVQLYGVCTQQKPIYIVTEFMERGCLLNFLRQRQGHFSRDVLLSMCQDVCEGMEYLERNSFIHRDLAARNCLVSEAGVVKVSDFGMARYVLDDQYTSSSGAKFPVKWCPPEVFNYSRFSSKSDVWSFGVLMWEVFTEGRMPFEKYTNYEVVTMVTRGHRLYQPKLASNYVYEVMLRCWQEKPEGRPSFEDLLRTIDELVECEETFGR
Procedure, shortened: as §1

GSK3b = GSK3b (Homo sapiens, UniProt P49841)
Sequence of GSK3b (P49841 whole entry): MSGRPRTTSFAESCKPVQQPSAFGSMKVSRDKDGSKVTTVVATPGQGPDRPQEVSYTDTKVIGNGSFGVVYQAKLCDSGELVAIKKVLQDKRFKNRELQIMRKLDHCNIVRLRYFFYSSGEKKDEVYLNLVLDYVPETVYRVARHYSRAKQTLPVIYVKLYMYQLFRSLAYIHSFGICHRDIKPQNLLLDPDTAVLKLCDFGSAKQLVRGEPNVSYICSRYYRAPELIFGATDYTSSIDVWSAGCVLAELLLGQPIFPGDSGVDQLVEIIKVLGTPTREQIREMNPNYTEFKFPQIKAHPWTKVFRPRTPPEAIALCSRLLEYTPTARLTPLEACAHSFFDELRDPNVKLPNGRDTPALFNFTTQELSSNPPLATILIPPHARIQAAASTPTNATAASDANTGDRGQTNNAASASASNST
Procedure, shortened: as §1

CDK4/cyclin D3 = CDK4/cyclin D3 (Homo sapiens, UniProt P11802)
Sequence of CDK4/cyclin D3 (P11802 whole entry): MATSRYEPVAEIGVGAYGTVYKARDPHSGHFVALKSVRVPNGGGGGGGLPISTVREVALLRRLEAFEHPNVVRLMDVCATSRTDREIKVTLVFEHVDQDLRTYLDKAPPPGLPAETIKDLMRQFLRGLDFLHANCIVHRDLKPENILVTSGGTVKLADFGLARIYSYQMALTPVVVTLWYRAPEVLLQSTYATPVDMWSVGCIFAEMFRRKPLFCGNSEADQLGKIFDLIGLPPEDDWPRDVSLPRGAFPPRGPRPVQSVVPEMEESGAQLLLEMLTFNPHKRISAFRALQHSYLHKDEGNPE
Sequence of CDK4/cyclin D3 (P30281 whole entry partner): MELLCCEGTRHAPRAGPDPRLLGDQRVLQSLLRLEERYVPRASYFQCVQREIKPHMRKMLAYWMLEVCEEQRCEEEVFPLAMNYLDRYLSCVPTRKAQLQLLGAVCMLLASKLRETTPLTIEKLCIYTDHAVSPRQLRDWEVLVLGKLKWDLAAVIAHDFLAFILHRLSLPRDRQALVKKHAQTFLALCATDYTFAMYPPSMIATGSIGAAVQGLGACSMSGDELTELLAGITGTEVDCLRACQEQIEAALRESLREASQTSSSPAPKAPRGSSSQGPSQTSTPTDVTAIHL
Procedure, shortened: as §1

PKCnu/PRKD3 = PKCnu/PRKD3 (Homo sapiens, UniProt O94806)
Procedure, shortened: as §1

FES/FPS = FES/FPS (Homo sapiens, UniProt P07332)
Procedure, shortened: as §1

EGFR = EGFR (Homo sapiens, UniProt P00533)
Procedure, shortened: as §1

CLK1 = CLK1 (Homo sapiens, UniProt P49759)
Procedure, shortened: as §1

KDR/VEGFR2 = KDR/VEGFR2 (Homo sapiens, UniProt P35968)
Sequence of KDR/VEGFR2 (P35968 whole entry): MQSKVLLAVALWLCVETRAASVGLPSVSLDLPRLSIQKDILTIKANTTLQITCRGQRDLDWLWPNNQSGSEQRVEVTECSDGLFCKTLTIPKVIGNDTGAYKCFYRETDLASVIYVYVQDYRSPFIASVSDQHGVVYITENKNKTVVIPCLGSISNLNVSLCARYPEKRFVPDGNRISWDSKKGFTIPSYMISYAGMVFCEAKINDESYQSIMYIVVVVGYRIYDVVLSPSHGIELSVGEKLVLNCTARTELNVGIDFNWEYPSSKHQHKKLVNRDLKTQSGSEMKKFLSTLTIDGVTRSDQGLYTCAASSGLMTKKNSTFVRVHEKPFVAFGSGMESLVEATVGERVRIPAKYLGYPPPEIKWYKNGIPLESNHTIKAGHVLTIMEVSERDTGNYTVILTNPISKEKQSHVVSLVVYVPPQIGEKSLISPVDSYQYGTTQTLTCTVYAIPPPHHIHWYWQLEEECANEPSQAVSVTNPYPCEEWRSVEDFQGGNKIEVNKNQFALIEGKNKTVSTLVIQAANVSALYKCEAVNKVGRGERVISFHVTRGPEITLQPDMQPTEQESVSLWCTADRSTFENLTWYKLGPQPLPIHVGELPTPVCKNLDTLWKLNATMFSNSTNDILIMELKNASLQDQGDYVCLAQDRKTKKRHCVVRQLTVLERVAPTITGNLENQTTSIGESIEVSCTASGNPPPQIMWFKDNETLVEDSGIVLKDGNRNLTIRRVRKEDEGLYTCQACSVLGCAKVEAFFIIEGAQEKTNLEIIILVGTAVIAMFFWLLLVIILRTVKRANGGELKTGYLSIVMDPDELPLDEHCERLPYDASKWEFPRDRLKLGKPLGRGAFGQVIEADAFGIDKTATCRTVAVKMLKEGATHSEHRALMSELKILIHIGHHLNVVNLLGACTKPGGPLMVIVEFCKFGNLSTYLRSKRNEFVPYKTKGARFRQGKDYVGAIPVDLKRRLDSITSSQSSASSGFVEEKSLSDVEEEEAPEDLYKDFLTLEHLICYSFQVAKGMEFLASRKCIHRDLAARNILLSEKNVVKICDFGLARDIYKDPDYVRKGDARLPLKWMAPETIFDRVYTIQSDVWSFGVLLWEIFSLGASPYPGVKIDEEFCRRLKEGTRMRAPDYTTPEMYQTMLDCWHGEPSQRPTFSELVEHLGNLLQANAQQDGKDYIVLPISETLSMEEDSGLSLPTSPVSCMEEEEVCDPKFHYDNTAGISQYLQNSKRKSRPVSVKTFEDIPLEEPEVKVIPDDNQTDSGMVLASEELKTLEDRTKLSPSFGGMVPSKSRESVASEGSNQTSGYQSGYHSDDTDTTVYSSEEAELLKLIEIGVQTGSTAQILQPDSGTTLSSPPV
Procedure, shortened: as §1

CDK18/cyclin Y (PCTK3) = CDK18/cyclin Y (PCTK3) (Homo sapiens, UniProt Q07002)
Procedure, shortened: as §1

KSR1 = KSR1 (Homo sapiens, UniProt Q8IVT5)
Procedure, shortened: as §1

CDK2/cyclin A1 = CDK2/cyclin A1 (Homo sapiens, UniProt P24941)
Procedure, shortened: as §1

GSK3a = GSK3a (Homo sapiens, UniProt P49840)
Procedure, shortened: as §1

PLK2 = PLK2 (Homo sapiens, UniProt Q9NYY3)
Procedure, shortened: as §1

DMPK = DMPK (Homo sapiens, UniProt Q09013)
Procedure, shortened: as §1

PDGFRa = PDGFRa (Homo sapiens, UniProt P16234)
Sequence of PDGFRa (P16234 whole entry): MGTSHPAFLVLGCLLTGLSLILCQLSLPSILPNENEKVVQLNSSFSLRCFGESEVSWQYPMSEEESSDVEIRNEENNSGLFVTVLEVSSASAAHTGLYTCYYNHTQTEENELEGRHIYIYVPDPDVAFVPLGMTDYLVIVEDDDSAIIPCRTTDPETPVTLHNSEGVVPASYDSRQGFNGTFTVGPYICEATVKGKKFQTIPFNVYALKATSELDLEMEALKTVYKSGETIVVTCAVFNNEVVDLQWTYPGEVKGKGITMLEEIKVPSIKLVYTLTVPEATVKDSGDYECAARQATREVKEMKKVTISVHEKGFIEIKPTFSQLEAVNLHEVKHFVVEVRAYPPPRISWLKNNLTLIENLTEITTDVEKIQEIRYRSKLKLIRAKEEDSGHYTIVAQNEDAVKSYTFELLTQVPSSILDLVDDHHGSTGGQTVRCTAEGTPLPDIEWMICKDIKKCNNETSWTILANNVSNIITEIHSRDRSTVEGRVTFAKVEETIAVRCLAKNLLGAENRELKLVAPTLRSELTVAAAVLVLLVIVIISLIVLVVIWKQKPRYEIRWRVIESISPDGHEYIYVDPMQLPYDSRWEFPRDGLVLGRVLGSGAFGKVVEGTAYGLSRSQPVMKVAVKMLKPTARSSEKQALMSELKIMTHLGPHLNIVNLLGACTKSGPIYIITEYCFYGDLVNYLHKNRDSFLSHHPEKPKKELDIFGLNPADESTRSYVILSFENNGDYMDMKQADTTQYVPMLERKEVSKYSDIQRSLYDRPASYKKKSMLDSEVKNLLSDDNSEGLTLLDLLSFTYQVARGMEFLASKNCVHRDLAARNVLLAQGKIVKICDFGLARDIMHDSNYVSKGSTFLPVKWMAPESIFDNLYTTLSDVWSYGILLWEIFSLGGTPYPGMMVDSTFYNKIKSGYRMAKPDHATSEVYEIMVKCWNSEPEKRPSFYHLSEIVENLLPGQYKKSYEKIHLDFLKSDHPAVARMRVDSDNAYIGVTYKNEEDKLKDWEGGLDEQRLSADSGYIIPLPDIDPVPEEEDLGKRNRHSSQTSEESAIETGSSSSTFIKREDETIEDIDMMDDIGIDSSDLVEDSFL
Procedure, shortened: as §1

MAPKAPK3 = MAPKAPK3 (Homo sapiens, UniProt Q16644)
Sequence of MAPKAPK3 (Q16644 whole entry): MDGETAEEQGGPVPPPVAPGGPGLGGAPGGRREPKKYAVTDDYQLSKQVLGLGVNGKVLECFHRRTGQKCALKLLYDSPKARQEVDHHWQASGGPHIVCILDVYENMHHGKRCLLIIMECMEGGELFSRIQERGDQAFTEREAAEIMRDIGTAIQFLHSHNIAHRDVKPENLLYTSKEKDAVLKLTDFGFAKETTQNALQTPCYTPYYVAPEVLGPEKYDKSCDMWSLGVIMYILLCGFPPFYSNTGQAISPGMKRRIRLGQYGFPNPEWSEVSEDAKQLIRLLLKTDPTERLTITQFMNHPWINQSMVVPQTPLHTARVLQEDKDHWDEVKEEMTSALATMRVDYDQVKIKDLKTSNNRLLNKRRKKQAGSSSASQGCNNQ
Procedure, shortened: as §1

MRCKb/CDC42BPB = MRCKb/CDC42BPB (Homo sapiens, UniProt Q9Y5S2)
Procedure, shortened: as §1

CDK4/cyclin D1 = CDK4/cyclin D1 (Homo sapiens, UniProt P11802)
Sequence of CDK4/cyclin D1 (P11802 whole entry): as the sequence (P11802 whole entry) above
Sequence of CDK4/cyclin D1 (P24385 whole entry partner): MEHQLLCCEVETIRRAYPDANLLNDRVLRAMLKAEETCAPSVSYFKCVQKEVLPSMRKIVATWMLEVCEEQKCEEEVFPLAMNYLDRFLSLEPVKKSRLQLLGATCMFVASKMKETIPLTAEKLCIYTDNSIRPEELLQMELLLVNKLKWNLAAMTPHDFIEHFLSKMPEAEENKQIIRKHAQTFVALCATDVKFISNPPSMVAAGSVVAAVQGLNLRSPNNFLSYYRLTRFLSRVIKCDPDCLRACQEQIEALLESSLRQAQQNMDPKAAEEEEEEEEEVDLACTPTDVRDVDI
Procedure, shortened: as §1

[1] = read-out: % Enzyme Activity (relative to DMSO controls) / TP-0005801 (0.3µM) / Data 1
[2] = read-out: % Enzyme Activity (relative to DMSO controls) / TP-0005801 (0.3µM) / Data 2

Which results are given for `COc1cc(N2CCN(C)CC2)c(C)cc1Nc1ncc(Br)c(Nc2cccnc2N(C)C)n1` [TP-5801]?
remaining activity at 0.3 µM (IKKb/IKBKB; [1]): 104%; remaining activity at 0.3 µM (IKKb/IKBKB; [2]): 102%; remaining activity at 0.3 µM (GRK7; [1]): 105%; remaining activity at 0.3 µM (GRK7; [2]): 97.5%; remaining activity at 0.3 µM (TEC; [1]): 93.4%; remaining activity at 0.3 µM (TEC; [2]): 92.2%; remaining activity at 0.3 µM (GSK3b; [1]): 96.4%; remaining activity at 0.3 µM (GSK3b; [2]): 95.7%; remaining activity at 0.3 µM (CDK4/cyclin D3; [1]): 91.7%; remaining activity at 0.3 µM (CDK4/cyclin D3; [2]): 90.8%; remaining activity at 0.3 µM (PKCnu/PRKD3; [1]): 55.8%; remaining activity at 0.3 µM (PKCnu/PRKD3; [2]): 55.5%; remaining activity at 0.3 µM (FES/FPS; [1]): 18.2%; remaining activity at 0.3 µM (FES/FPS; [2]): 17.6%; remaining activity at 0.3 µM (EGFR; [1]): 97.2%; remaining activity at 0.3 µM (EGFR; [2]): 96%; remaining activity at 0.3 µM (CLK1; [1]): 11.9%; remaining activity at 0.3 µM (CLK1; [2]): 11.7%; remaining activity at 0.3 µM (KDR/VEGFR2; [1]): 93.5%; remaining activity at 0.3 µM (KDR/VEGFR2; [2]): 93.2%; remaining activity at 0.3 µM (CDK18/cyclin Y (PCTK3); [1]): 98%; remaining activity at 0.3 µM (CDK18/cyclin Y (PCTK3); [2]): 94.2%; remaining activity at 0.3 µM (KSR1; [1]): 99.2%; remaining activity at 0.3 µM (KSR1; [2]): 97.6%; remaining activity at 0.3 µM (CDK2/cyclin A1; [1]): 67.5%; remaining activity at 0.3 µM (CDK2/cyclin A1; [2]): 63.7%; remaining activity at 0.3 µM (GSK3a; [1]): 97.1%; remaining activity at 0.3 µM (GSK3a; [2]): 95.8%; remaining activity at 0.3 µM (PLK2; [1]): 84%; remaining activity at 0.3 µM (PLK2; [2]): 83.9%; remaining activity at 0.3 µM (DMPK; [1]): 102%; remaining activity at 0.3 µM (DMPK; [2]): 101%; remaining activity at 0.3 µM (PDGFRa; [1]): 84.6%; remaining activity at 0.3 µM (PDGFRa; [2]): 84.5%; remaining activity at 0.3 µM (MAPKAPK3; [1]): 104%; remaining activity at 0.3 µM (MAPKAPK3; [2]): 103%; remaining activity at 0.3 µM (MRCKb/CDC42BPB; [1]): 99.2%; remaining activity at 0.3 µM (MRCKb/CDC42BPB; [2]): 98%; remaining activity at 0.3 µM (CDK4/cyclin D1; [1]): 106%; remaining activity at 0.3 µM (CDK4/cyclin D1; [2]): 104%
